# Data published in US20110104055A1, “SUBSTITUTED N-ARYL BENZAMIDES AND RELATED COMPOUNDS FOR TREATMENT OF AMYLOID DISEASES AND SYNUCLEINOPATHIES” (priority 2002, published 2011).
# Assays:
# Type in all cases: biochemical
# [1] = molecular target: T1, Aβ 1-42 fibrils (Homo sapiens, UniProt P05067); assay: Thioflavin T fluorometry, disruption of pre-formed Aβ 1-42 fibrils (Example 6); settings: 3 days; for % inhibition of Aβ (Thioflavin T fluorometry): 25 μM pre-fibrillized Aβ 1-42, 37° C.
# T1 construct: purchased Bachem Inc
# Method: (§1) The biological activity of the compounds provided herein as disruptors/inhibitors of Alzheimer's disease β-amyloid protein (Aβ) fibrils, type 2 diabetes IAPP fibrils and Parkinson's disease NAC fibrils was assessed by determining the efficacy of the compounds to cause a disassembly/disruption of pre-formed amyloid fibrils of Alzheimer's disease (i.e. consisting of Aβ 1-42 fibrils), IAPP fibrils and Parkinson's disease NAC fibrils. In one study, Thioflavin T fluorometry was used to determine the effects of the compounds, and of EDTA (as a negative control). In this assay Thioflavin T binds specifically to fibrillar amyloid, and this binding produces a fluorescence enhancement at 485 nm that is directly proportional to the amount of fibrils present. The higher the fluorescence, the greater the amount of fibrils present (Naki et al, Lab. Invest. 65:104-110, 1991; Levine III, Protein Sci. 2:404-410, 1993; Amyloid: Int. J. Exp. Clin. Invest. 2:1-6, 1995). The disruption of Aβ 1-42, even in its monomeric form, was confirmed by a study involving the use of SDS-PAGE and Western blotting methods.
# (§2) In one study, Thioflavin T fluorometry was used to determine the effects of the compounds, and of EDTA (as a negative control). In this assay Thioflavin T binds specifically to fibrillar amyloid, and this binding produces a fluorescence enhancement at 485 nm that is directly proportional to the amount of amyloid fibrils formed. The higher the fluorescence, the greater the amount of amyloid fibrils formed (Naki et al., Lab. Invest. 65:104-110, 1991; Levine III, Protein Sci. 2:404-410, 1993; Amyloid: Int. J. Exp. Clin. Invest. 2:1-6, 1995).
# (§3) Following 3 days of co-incubation, 50 μl of each incubation mixture was transferred into a 96-well microtiter plate containing 150 μl of distilled water and 50 μl of a Thioflavin T solution (i.e. 500 mM Thioflavin T in 250 mM phosphate buffer, pH 6.8). The fluorescence was read at 485 nm (444 nm excitation wavelength) using an ELISA plate fluorometer after subtraction with buffer alone or compound alone, as blank).
# [2] = molecular target: T2, IAPP fibrils (Homo sapiens, UniProt P10997); assay: Thioflavin T fluorometry, disruption of IAPP fibrils; settings: 3 days; for % inhibition of IAPP (Thioflavin T fluorometry): 25 μM IAPP, 37° C.
# T2 construct: purchased Bachem Inc
# T2 sequence (P10997 34-70 limits assumed): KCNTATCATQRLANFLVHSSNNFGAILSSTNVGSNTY
# Method: as §1, with “In one study, Thioflavin T fluorometry was used to determine the effects of the compounds, and of EDTA (as a negative control).” left out
# as §2, with “In” for “In one study, Thioflavin T fluorometry was used to determine the effects of the compounds, and of EDTA (as a negative control). In”
# as §3, with “In this study, 25 μM of IAPP (Bachem Inc) was incubated at 37° C. for 3 days, either alone, or in the presence of one of the compounds or EDTA (at IAPP:test compound weight ratios of 1:1, 1:0.1, 1:0.01 or 1:0.001). Following” for “Following”
# [3] = molecular target: T2, IAPP fibrils; assay: Congo red binding assay, IAPP fibrils; settings: 3-day incubation
# Method: In the Congo red binding assay the ability of a given test compound to alter amyloid (Aβ 1-42 fibrils, IAPP fibrils or NAC fibrils) binding to Congo red was quantified. In this assay, Aβ 1-42 fibrils, IAPP fibril or NAC fibrils and test compounds were incubated for 3 days and then vacuum filtered through a 0.2 μm filter. The amount of Aβ 1-42 fibrils, IAPP fibrils or NAC fibrils retained in the filter was then quantitated following staining of the filter with Congo red. After appropriate washing of the filter, any lowering of the Congo red color on the filter in the presence of the test compound (compared to the Congo red staining of the amyloid protein in the absence of the test compound) was indicative of the test compound's ability to diminish/alter the amount of aggregated and congophilic Aβ 1-42 fibrils, IAPP fibrils or NAC fibrils.
# In the Congo red binding assay the ability of a test compound to alter amyloid (in this case, IAPP) binding to Congo red is quantified. In this assay, IAPP and test compounds were incubated for 3 days and then vacuum filtered through a 0.2 μm filter. The amount of IAPP retained in the filter was then quantified following staining of the filter with Congo red. After appropriate washing of the filter, any lowering of the Congo red color on the filter in the presence of the test compound (compared to the Congo red staining of the amyloid protein in the absence of the test compound) was indicative of the test compound's ability to diminish/alter the amount of aggregated and congophilic IAPP.
# In one study, the ability of IAPP fibrils to bind Congo red in the absence or presence of increasing amounts of the compounds or EDTA (at IAPP:test compound weight ratios of 1:0.001, 1:0.01, 1:0.1 and 1:1) was determined.
# [4] = Thioflavin T fluorometry, all concentrations tested
# [5] = IAPP:test compound wt/wt ratio 1:0.001
# [6] = IAPP:test compound wt/wt ratio 1:0.01
# [7] = IAPP:test compound wt/wt ratio 1:0.1
# [8] = IAPP:test compound wt/wt ratio 1:1
# T1 sequence (P05067 672-713): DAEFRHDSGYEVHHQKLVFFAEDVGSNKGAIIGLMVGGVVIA
smiles,measurement,setting,value
O=C(O)CN(CCN(CC(=O)O)CC(=O)O)CC(=O)O [EDTA],% inhibition of Aβ (Thioflavin T fluorometry),[1]; Aβ:test compound wt/wt ratio 1:0.01,0.2 ± 3.03%
same,% inhibition of Aβ (Thioflavin T fluorometry),[1]; Aβ:test compound wt/wt ratio 1:1,0.0 ± 3.59%
same,"disruption/disassembly of preformed Aβ 1-42 fibrils, in words",[1]; [4],no significant inhibition/disruption
same,% inhibition of IAPP (Thioflavin T fluorometry),[2]; [5],0.0 +/− 0.56%
same,% inhibition of IAPP (Thioflavin T fluorometry),[2]; [6],4. +/− 3.152%
same,% inhibition of IAPP (Thioflavin T fluorometry),[2]; [7],1.6 +/− 5.86%
same,% inhibition of IAPP (Thioflavin T fluorometry),[2]; [8],0.0 ± 1.31%
same,"disruption/disassembly of preformed IAPP fibrils, in words",[2]; [4],no significant inhibition/disruption
same,"inhibition of IAPP fibril binding to Congo red, in words",[3],no significant inhibition
same,% inhibition of IAPP (Congo red binding),[3]; [5],0.0 ± 1.82%
same,% inhibition of IAPP (Congo red binding),[3]; [6],0.0 +/− 1.65%
same,% inhibition of IAPP (Congo red binding),[3]; [7],0.0 +/− 2.40%
same,% inhibition of IAPP (Congo red binding),[3]; [8],13.9 +/− 4.71%
